Experimental data taken from patent publication US6703365B2, “Glucagon-like insulinotropic peptides, compositions and methods” (Eli Lilly and Company, priority 1993, dated 2004).
Values joined by “and” are separate entries in the source; they are usually repeats but may differ in a detail not shown here. Equal values may be shown once. Read-outs that look alike come from different tables or passages of the source.

Tests used:
[1] = stored at 4° C.; cited from earlier work
[2] = Zinc complexation/precipitation of GLP-1 molecules, protein content of supernatant by 280 nm absorbance (Example 1); assay type: physicochemical; details: 0.1M HEPES pH 7.4, about 0.1 mg/mL, 22° C., about 18 hours
Method: Individual aliquots of 5 different GLP-1 molecules were prepared by well-known, solid phase peptide synthesis and were lyophilized in small vials. Portions of 0.1M HEPES (N-[2-hydroxyethyl]piperazine-N′-[2-ethanesulfonic acid]) buffers at pH 7.4 containing various levels of zinc chloride were added to the aliquots to obtain a protein concentration of about 0.1 mg/mL. The samples were mixed and stored at ambient temperature (22° C.) for about 18 hours. The mixtures were then centrifuged (Fisher Model 235C micro-centrifuge) for 5 minutes. The clear supernatants were pipetted from the tubes. The protein content of the supernatants was estimated by measuring their absorbance at 280 nm in a spectrophotometer (Gilford 260). The theoretical absorbance value for a 0.1 mg/mL solution of the GLP-1 molecules at this wavelength in the 1 cm cuvettes is 0.207.

[3] = intravenous infusion, cited from earlier work
[4] = Zinc precipitation of GLP-1 (7-36)NH2, 280 nm absorbance and zinc by atomic absorption in supernatant and redissolved precipitate (Example 2); assay type: physicochemical
Method: 5 mg of GLP-1 (7-36)NH2 was completely dissolved in 2.5 ML of pH 7.4, zinc-free 0.1M HEPES buffer. An additional 2.5 mL of pH 7.4, 0.1M HEPES buffer containing 0.6 mM zinc chloride was quickly added. The approximate molar ratio of zinc to GLP-1 (7-36)NH2 in this sample is 1 to 1. The solution immediately became cloudy and precipitation soon formed. The mixture was stored at ambient temperature (22° C.) for 18 hours.
The precipitate became firmly attached to the bottom of the glass vial. The supernatant was completely decanted by pipette. The precipitate was then completely dissolved in 5.0 mL of 0.1N hydrochloric acid. The absorbance at 280 nm was determined for both the supernatant and redissolved precipitate solutions. The zinc levels in these solutions were quantitated by atomic absorption spectrophotometry.

[5] = Zn/GLP-1 molecule molar ratio 0, theoretical absorbance 0.207
[6] = Zn/GLP-1 molecule molar ratio 0.3
[7] = Zn/GLP-1 molecule molar ratio 0.5
[8] = Zn/GLP-1 molecule molar ratio 0.7
[9] = Zn/GLP-1 molecule molar ratio 1.0
[10] = Zn/GLP-1 molecule molar ratio 3.0
[11] = Patients With Maturity Onset Diabetes

Row | Substance | 280 nm Absorbance of supernatant [2, 5] | 280 nm Absorbance of supernatant [2, 6] | 280 nm Absorbance of supernatant [2, 7] | 280 nm Absorbance of supernatant [2, 8] | 280 nm Absorbance of supernatant [2, 9] | 280 nm Absorbance of supernatant [2, 10] | other results
1 | GLP-1 (7-37) | – | – | – | – | – | – | Time after sample preparation at which by-products were found [1]: eleven
2 | Gly^8-GLP-1(7-36)NH2 [Gly^8-GLP-1 (7-36)NH2] | 0.136 | 0.079 | 0.070 | 0.058 | 0.057 | 0.044 | –
3 | His^7-Ala-Glu-Gly^10-Thr-Phe-Thr-Ser-Asp15-Val-Ser-Ser-Tyr-Leu^20-Glu-Gly-Gln-Ala-Ala^25-Lys-Glu-Phe-Ile-Ala^30-Trp-Leu-Val-Lys-Gly^35-Arg-NH2 [GLP-1 (7-36)NH2] | 0.172 | 0.099 | 0.057 | 0.035 | 0.039 | 0.048 | Meal glycemia ([3]; Normal Subjects, twice normal serum concentrations): Unchanged; Endogenous insulin secretion in response to a meal ([3]; Normal Subjects): Unchanged; Free fatty acids ([3]; Normal Subjects): Reduced (3); Endogenous insulin secretion in response to a meal [3, 11]: Increased; Fasting glucagon [3, 11]: Reduced; Fasting glycemia [3, 11]: Reduced; Free fatty acids [3, 11]: Reduced (2); Meal glycemia [3, 11]: Reduced; Post-prandial glucagon [3, 11]: Reduced; Zinc Concentration in Parts per Million ([4]; Redissolved Precipitate (5 ml)): 13.3 Parts per Million; 280 nm Absorbance ([4]; Redissolved Precipitate (5 ml) in 0.1N hydrochloric acid): 1.932; Zinc Concentration in Parts per Million ([4]; Supernatant (5 ml)): 9.02 Parts per Million; 280 nm Absorbance ([4]; Supernatant (5 ml), zinc to peptide about 1 to 1, pH 7.4 HEPES, 22° C., 18 hours): 0.118; zinc concentration of the redissolved precipitate solution ([4]; equivalent of 13.3 parts per million): 203 µM; GLP-1 (7-36)NH2 concentration of the redissolved precipitate ([4]; from 280 nm absorbance 1.932): 0.933 mg/ml and 283 μM; molar ratio of zinc to GLP-1 (7-36)NH2 in the precipitate ([4]; ratio to 1): 0.717; precipitation from the solution when zinc-containing HEPES solution was added ([4]; zinc to peptide about 1 to 1, pH 7.4): most of the GLP-1 (7-36)NH2 precipitated from the solution
4 | Val^8-GLP-1(7-37) OH [Val^8-GLP-1 (7-37)OH] | 0.187 | 0.191 | 0.184 | 0.180 | 0.173 | 0.110 | –

Second part, led by results:

Row | 280 nm Absorbance of supernatant [2, 5] | 280 nm Absorbance of supernatant [2, 6] | 280 nm Absorbance of supernatant [2, 7] | 280 nm Absorbance of supernatant [2, 8] | 280 nm Absorbance of supernatant [2, 9] | 280 nm Absorbance of supernatant [2, 10] | Substance | other results
5 | 0.167 | 0.113 | 0.082 | 0.069 | 0.065 | 0.055 | Gly^8-Gln^21-GLP-1(7-37)OH [Gly^8-Gln^21 GLP-1 (7-37)OH] | –
6 | 0.163 | 0.134 | 0.098 | 0.079 | 0.076 | 0.055 | α-methly-Ala^8-GLP-1(7-36)NH2 [α-methyl-Ala^8-GLP-1 (7-36)NH2] | –
